Measured values: US11306100B2, “Spirooxindole compounds as GSK3B inhibitors and process for preparation thereof” (COUNCIL OF SCIENTIFIC & INDUSTRIAL RESEARCH, priority 2017, dated 2022)

Columns and labels:
recombinant GSK3β = recombinant GSK3β (Homo sapiens, UniProt P49841); test: ADP-Glo kinase assay of GSK3β activity; assay type: biochemical; conditions: for IC50: GSK3β kinase activity
Description: Activity of recombinant GSK3β is measured using ADP-Glo Kinase assay according to supplier's standard protocol with minor modifications in 384 well format. Briefly, kinase reaction mixture was prepared by adding […] of recombinant enzyme, 2 μM ATP, 1 μg of enzyme substrate along with test compound or DMSO to a final volume of 5 μl. The kinase reaction was performed by incubating the mixture at room temperature for 17 mins. To correct reaction back ground a substrate blank reaction was also performed. ADP glow reagent (equal volume to reaction mixture) was added to the reaction mixture to deplete any unused ATP added to the kinase reaction and incubated at further 40 min at 27° C. Then 10 μl of kinase detection reagent was added followed by incubation for 30 min at 27° C. to convert ADP to ATP and introduce luciferase to measure kinase activity. The luminescence was measured using luminometer (Perkin Elmer) which is directly proportional to ADP generated in kinase reaction. To determine the amount of ADP produced in kinase reaction and calculate specific activity of the enzyme, a conversion curve is prepared by serial dilution of ADP and ATP mixture. Specific activity of the GSK3β was calculated using the following equation. (ADP(kinase reaction)−ADP(substrate blank)) in mmol)/(Reaction time in min)×(GSK3β in mg).

PANC-1 cells [1] = test: Cell viability, Sulforhodamine B assay; assay type: cell-based
Description: Cell viability was measured using Sulforhodamine B assay. The cytotoxic effect of the compounds with GSK3β inhibitory potential was tested against PANC-1 cells. Initially, the PANC-1 cells were seeded in flat bottom 96-well plate (5000 cells/100 μL) in complete medium and cultured for 18 hrs under standard conditions. After 18 h the cells were treated with either the different concentration of compounds, standard drugs or DMSO as solvent control. The final DMSO concentration to cells was maintained <2% in all cytotoxic assays. Each compound was tested in triplicate and the cytotoxicity was determined as the average of that triplicate. Further, the plates were incubated for another 48 h in an incubator maintained at 37° C. with a constant supply of 5% CO2. The cells were fixed using 10% TCA and incubated for 1 h at 4° C. Then the plates were rinsed carefully with MQ water and air dried at room temperature. To all the wells of MTP plate 0.057% SRB solution was added and kept for approximately 30 min before it was rinsed off using 1% acetic acid. The plates were then air dried and 100 μL of 10 mM tris base was added to each well to solubilize the SRB before absorbance was measured at 510 nm. The measure of absorbance is directly proportional to cell growth and is thus used to calculate % reduction in the rate of cell proliferation according to control DMSO treated cells. All experiments were performed in triplicates; mean % age proliferation values with ±SD were plotted here.

[2] = tested on: cellular GSK3β signalling in PANC-1 cells; test: Western blot of GSK3β signalling and NFkB target proteins in PANC-1 cells; assay type: cell-based
Description: The compounds inhibiting GSK3β activity in-vitro added to PANC-1 cells to determine their potential against intracellular GSK3β signalling pathways in cancer cells. Briefly, PANC-1 cells were plated in 60 mm plates (100,000 cells/4 mL) and cultured in the standard DMEM medium containing 10% serum. After culturing for 18 hrs, different concentrations of test compounds or standard controls prepared in DMSO were added to culture media to achieve final concentration 0 to 100 μM of compound to cells. Cells were further continued to grow for 48 h with constant supply of 5% CO2 in humid incubator. The time course (0 to 48 h) experiment was carried out simultaneously with fixed concentration of compound showing 50% growth inhibition. At the end of the experiments, all cells were scraped directly in cold PBS and washed for 3 times before lysis directly in 2D lysis buffer (8M urea, 2M thiourea, 4% CHAPS, 4 mM tris base and 65 mM DTT) for isolation of proteins to perform western blots. The protein concentration was determined by modified Bradford assay.
To perform western blot, protein extracts were separated on 12% SDS-PAGE and electrophoretically (1 mA/cm^2 membrane for 1 hr) transferred onto the nitrocellulose membrane by semi-dry method. After protein transfer, membrane was stained with Ponceau S solution (0.2% Ponceau S in 3% Trichloroacetic acid) for 2 min to see efficiency of electrophoretic transfer. The membrane was destained in ddH2O to visualize the protein bands and further destained with TBST (20 mM Tris, 138 mM NaCl, pH 7.6 and 0.1% Tween 20) for blotting. To avoid non-specific detection of target proteins, blotted membranes were blocked with BSA (3% BSA in TBST solution). All antibodies against specific protein targets of interest were purchased from Cell Signaling Technology, USA if not mentioned specifically. Then the blots were incubated with antibodies prepared in blocking buffer (1:1000 Antibody to blocking buffer dilution) for 18 h with constant shaking at 4° C. Three washing steps in PBS each for 5 mins removed the excess and non-specific antibodies. For visualization, blots were incubated with secondary antibody conjugated to either horseradish peroxidase or alkaline phosphatase [anti-(mouse IgG) or anti-(rabbit IgG), diluted 1:5000 in TBST] for 1 h at room temperature. After three washes in PBS, the reaction was developed either by addition of LumiGLO substrate (Cell Signaling Technology) followed by capturing on X-ray film or addition of chromogenic NBT (nitro-blue tetrazolium chloride) and BCIP (5-bromo-4-chloro-3′-indolyphosphate p-toluidine salt) substrate for alkaline phosphatase developing purple colored bands. The blots were scanned for densitometry performed using Image-J program.

PANC-1 cells [3] = test: Colony formation (soft agar, clonogenic) assay; assay type: cell-based; conditions: TRAIL alone, 10 ηg/mL
Description: To determine the efficiency of GSK3β inhibitors in combination with the TRIAL on anchorage independent growth of PANC-1 cells soft agar assay were performed. The base agar (0.5%) was prepared by mixing equal amounts of 1% agar with 2× media (20% FBS and 2× antibiotics) filled in 6-well plate. Simultaneously, PANC-1 cells (14000/well) mixed with 2× media containing different concentrations of identified compounds alone or in combination with TRAIL mixed with 0.7% of sterile agar to achieve final concentration of […] top agar. The cell suspension was spread on solidified base agar. Then the plates were incubated in CO2 incubator for 14 days and the cells were fed with fresh media containing respective concentration and combination of TRIAL every 3 days. Upon termination (after 14 days of incubation) plates were stained with 0.005% of crystal violet for 1 h and excess stain was removed by washing with MQ. The number of blue colonies were counted using olympus Xi71 microscope.

Chain of recombinant GSK3β (P49841 whole entry): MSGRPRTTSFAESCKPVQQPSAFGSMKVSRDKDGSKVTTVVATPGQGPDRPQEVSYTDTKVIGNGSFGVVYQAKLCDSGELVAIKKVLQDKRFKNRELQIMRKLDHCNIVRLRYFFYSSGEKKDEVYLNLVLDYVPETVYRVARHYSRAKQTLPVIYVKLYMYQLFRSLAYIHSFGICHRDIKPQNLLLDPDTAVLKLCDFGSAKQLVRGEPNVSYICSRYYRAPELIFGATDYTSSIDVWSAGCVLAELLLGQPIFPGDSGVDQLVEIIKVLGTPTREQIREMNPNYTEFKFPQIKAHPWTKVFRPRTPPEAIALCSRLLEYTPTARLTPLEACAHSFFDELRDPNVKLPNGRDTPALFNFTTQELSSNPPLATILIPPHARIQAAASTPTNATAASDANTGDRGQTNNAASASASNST

Row | melting point [°C] | IC50 (recombinant GSK3β; 2 μM ATP) [µM] | Molecule | other results
1 | 170.6 | – | O=C1Nc2ccccc2C12COC(CI)C2 (stereo not shown) [6a, 5-(Iodomethyl)-4,5-dihydro-2H-spiro[furan-3,3′-indolin]-2′-one] | –
2 | 175 to 177 | 3.59 ± 0.98 | O=C1Nc2ccccc2C12COC(Cn1cc(-c3ccccc3)nn1)C2 (stereo not shown) [AB-C, 5-((4-Phenyl-1H-1,2,3-triazol-1-yl)methyl)-4,5-dihydro-2H-spiro[furan-3,3′-indolin]-2′-one] | inhibition of GSK3β in in-vitro kinase assays (recombinant GSK3β): potent inhibition; effectiveness against cell growth (PANC-1 cells [1]; FIG. 3B, low concentration of TRAIL (1 ηg/mL)): not effective compared to remaining compounds; effectiveness against cell growth / sensitisation to TRAIL (PANC-1 cells [1]; in combination with TRAIL (10 ηg/mL), FIG. 3A): less effective compared to other molecules; phosphorylation of GSK3β ([2]; PANC-1 cells treated with compound): significantly decreased; β-catenin level ([2]; PANC-1 cells versus control (DMSO)): accumulation of β-catenin
3 | – | 5.44 ± 1.49 | CC(C)(O)c1cn(CC2CC3(CO2)C(=O)Nc2ccccc23)nn1 (stereo not shown) [AB-E, 5-((4-(2-Hydroxypropan-2-yl)-1H-1,2,3-triazol-1-yl)methyl)-4,5-dihydro-2H-spiro[furan-3,3′-indolin]-2′-one] | –
4 | 133 to 134 | 4.68 ± 0.6 | CCOC(=O)c1cn(CC2CC3(CO2)C(=O)Nc2ccccc23)nn1 (stereo not shown) [AB-F, Ethyl-1-((2′-oxo-4,5-dihydro-2H-spiro[furan-3,3′-indoline]-5-yl)methyl)-1H-1,2,3-triazole-4-carboxylate] | –
5 | 126 to 128 | 4.91 ± 0.56 | O=C1Nc2ccccc2C12COC(CN1CCOCC1)C2 (stereo not shown) [AB-K, 5-(Morpholinomethyl)-4,5-dihydro-2H-spiro [furan-3, 3′-indolin]-2′-one] | –
6 | – | 4.06 ± 1.67 | O=C1Nc2ccccc2C12COC(CN1CCSCC1)C2 (stereo not shown) [AB-L, 5-(Thiomorpholinomethyl)-4,5-dihydro-2H-spiro[furan-3,3′-indolin]-2′-one] | –
7 | 120 to 122 | – | COC(=O)c1ccc(-c2cc(Cl)ccc2OCc2cn(CC3CC4(CO3)C(=O)Nc3ccccc34)nn2)nc1C (stereo not shown) [AB-N, Methyl-6-(5-chloro-2-((1-((2′-oxo-4,5-dihydro-2H-spiro[furan-3,3′-indoline]-5-yl)methyl)-1H-1,2,3-triazol-4-yl)methoxy)phenyl)-2-methylnicotinate] | –
8 | – | 4.93 ± 0.53 | O=Cc1ccccc1OCc1cn(CC2CC3(CO2)C(=O)Nc2ccccc23)nn1 (stereo not shown) [AB-P, 2-((1-((2′-Oxo-4,5-dihydro-2H-spiro[furan-3,3′-indoline]-5-yl)methyl)-1H-1,2,3-triazol-4-yl)methoxy)benzaldehyde] | –
9 | 141 to 143 | – | O=C1Nc2ccccc2C12COC(CN1CCN(Cc3ccccc3)CC1)C2 (stereo not shown) [AB-R, 5-((4-Benzylpiperazin-1-yl)methyl)-4,5-dihydro-2H-spiro[furan-3,3′-indolin]-2′-one] | –
10 | 132 to 135 | – | CCOC(=O)c1ccc(-c2cc(Cl)cc(Cl)c2OCc2cn(CC3CC4(CO3)C(=O)Nc3ccccc34)nn2)nc1C (stereo not shown) [AB-W, Ethyl6-(3,5-dichloro-2-((1-((2′-oxo-4,5-dihydro-2H-spiro[furan-3,3′-indoline]-5-yl)methyl)-1H-1,2,3-triazol-4-yl)methoxy)phenyl)-2-methylnicotinate] | –
11 | 130 to 132 | – | O=C1Nc2ccccc2C12COC(CN1CCN(c3ccccc3)CC1)C2 (stereo not shown) [AB-X, 5-((4-Phenylpiperazin-1-yl)methyl)-4,5-dihydro-2H-spiro[furan-3,3′-indolin]-2′-one] | –
12 | – | 6.53 ± 0.52 | CC(=O)Nc1ccccc1 [Acetanilide, reference compound] | –
13 | – | – | [Cl-].[Li+] [Licl, LiCl, reference compound] | IC50 (recombinant GSK3β): 3990 µM
14 | – | 6.46 ± 0.63 | O=C1Cc2ccccc2N1 [Oxindole] | –
15 | – | – | Cc1ccc([N+](=O)[O-])cc1S(=O)(=O)N(C)/N=C/c1cnc2ccc(Br)cn12 [PIK-75, reference compound] | IC50 (recombinant GSK3β): 0.0176 µM
16 | – | – | TRAIL: Tumor necrosis factor-related apoptosis-inducing ligand (TRAIL) (protein, UniProt P50591 1-281, looked up) Tumor necrosis factor ligand …: MAMMEVQGGPSLGQTCVLIVIFTVLLQSLCVAVTYVYFTNELKQMQDKYSKSGIACFLKEDDSYWDPNDEESMNSPCWQVKWQLRQLVRKMILRTSEETISTVQEKQQNISPLVRERGPQRVAAHITGTRGRSNTLSSPNSKNEKALGRKINSWESSRSGHSFLSNLHLRNGELVIHEKGFYYIYSQTYFRFQEEIKENTKNDKQMVQYIYKYTSYPDPILLMKSARNSCWSKDAEYGLYSIYQGGIFELKENDRIFVSVTNEHLIDMDHEASFFGAFLVG | cell death in PANC-1 cells (PANC-1 cells [1]; TRAIL alone (10 ηg/ml)): did not cause any significant cell death; inhibition of colony formation (PANC-1 cells [3]): did not show effective inhibition on colony formation
